According to the NIST ThermoML archive (doi:10.1016/j.jct.2012.12.001):
Values joined by “and” are separate entries in the source; they are usually repeats but may differ in a detail not shown here. Equal entries are not always repeated. Numbers after ± are expanded uncertainties.

Assay: heat capacity at constant pressure per volume; xn = mol fraction of the nth substance listed
Details: 101 kPa, Liquid, DSC, x2 = 0.695

CCCCCCCCCCCCCCCCC [heptadecane] + N#Cc1ccccc1
Details	heat capacity
319 K	1720700 ± 20000 J/K/m3
319.1 K	1720600 ± 20000 J/K/m3
319.2 K	1720500 ± 20000 J/K/m3
319.3 K	1720600 ± 20000 J/K/m3
319.5 K	1721300 ± 20000 J/K/m3
319.6 K	1721200 ± 20000 J/K/m3
319.7 K	1720900 ± 20000 J/K/m3
319.8 K	1720700 ± 20000 J/K/m3
319.9 K	1720500 ± 20000 J/K/m3
320 K	1720400 ± 20000 J/K/m3
320.1 K	1720500 ± 20000 J/K/m3
320.2 K	1720300 ± 20000 J/K/m3
320.3 K	1720800 ± 20000 J/K/m3
320.4 K	1720700 ± 20000 J/K/m3
320.5 K	1720400 ± 20000 J/K/m3
320.61 K	1720200 ± 20000 J/K/m3
320.7 K	1720000 ± 20000 J/K/m3
320.8 K	1720000 ± 20000 J/K/m3
320.9 K	1719900 ± 20000 J/K/m3
321 K	1720300 ± 20000 J/K/m3
321.1 K	1720600 ± 20000 J/K/m3
321.2 K	1720600 ± 20000 J/K/m3
321.3 K	1720600 ± 20000 J/K/m3
321.4 K	1720400 ± 20000 J/K/m3
321.5 K	1720000 ± 20000 J/K/m3
321.61 K	1719900 ± 20000 J/K/m3
321.7 K	1720100 ± 20000 J/K/m3
321.8 K	1720100 ± 20000 J/K/m3
321.89 K	1720400 ± 20000 J/K/m3
322 K	1720500 ± 20000 J/K/m3
322.1 K	1720500 ± 20000 J/K/m3
322.2 K	1720100 ± 20000 J/K/m3
322.3 K	1720100 ± 20000 J/K/m3
322.4 K	1720300 ± 20000 J/K/m3
322.5 K	1720600 ± 20000 J/K/m3
322.6 K	1720600 ± 20000 J/K/m3
322.7 K	1720800 ± 20000 J/K/m3
322.81 K	1721200 ± 20000 J/K/m3
322.9 K	1720800 ± 20000 J/K/m3
323 K	1720200 ± 20000 J/K/m3
323.11 K	1720200 ± 20000 J/K/m3
323.2 K	1720100 ± 20000 J/K/m3
323.3 K	1720100 ± 20000 J/K/m3
323.4 K	1720200 ± 20000 J/K/m3
323.5 K	1720700 ± 20000 J/K/m3
323.6 K	1720800 ± 20000 J/K/m3
323.7 K	1720800 ± 20000 J/K/m3
323.8 K	1720500 ± 20000 J/K/m3
323.9 K	1720400 ± 20000 J/K/m3
324 K	1720200 ± 20000 J/K/m3
324.1 K	1720200 ± 20000 J/K/m3
324.2 K	1720200 ± 20000 J/K/m3
324.3 K	1720300 ± 20000 J/K/m3
324.4 K	1720500 ± 20000 J/K/m3
324.5 K	1720500 ± 20000 J/K/m3
324.6 K	1720500 ± 20000 J/K/m3
324.7 K	1720600 ± 20000 J/K/m3
324.8 K	1720600 ± 20000 J/K/m3
324.9 K	1720400 ± 20000 J/K/m3
325 K	1720700 ± 20000 J/K/m3
325.1 K	1720700 ± 20000 J/K/m3
325.2 K	1720400 ± 20000 J/K/m3
325.3 K	1719500 ± 20000 J/K/m3
325.4 K	1720300 ± 20000 J/K/m3
325.5 K	1720500 ± 20000 J/K/m3
325.6 K	1720300 ± 20000 J/K/m3
325.7 K	1720400 ± 20000 J/K/m3
325.8 K	1720200 ± 20000 J/K/m3
325.9 K	1720200 ± 20000 J/K/m3
326 K	1720600 ± 20000 J/K/m3
326.1 K	1720900 ± 20000 J/K/m3
326.2 K	1720900 ± 20000 J/K/m3
326.3 K	1720900 ± 20000 J/K/m3
326.4 K	1720400 ± 20000 J/K/m3
326.5 K	1720200 ± 20000 J/K/m3
326.6 K	1720300 ± 20000 J/K/m3
326.7 K	1720400 ± 20000 J/K/m3
326.8 K	1720400 ± 20000 J/K/m3
326.9 K	1720700 ± 20000 J/K/m3
327 K	1721000 ± 20000 J/K/m3
327.1 K	1721000 ± 20000 J/K/m3
327.2 K	1721100 ± 20000 J/K/m3
327.3 K	1720800 ± 20000 J/K/m3
327.41 K	1720500 ± 20000 J/K/m3
327.5 K	1720400 ± 20000 J/K/m3
327.6 K	1720500 ± 20000 J/K/m3
327.7 K	1721000 ± 20000 J/K/m3
327.8 K	1721200 ± 20000 J/K/m3
327.9 K	1720800 ± 20000 J/K/m3
328 K	1720800 ± 20000 J/K/m3
328.1 K	1720800 ± 20000 J/K/m3
328.2 K	1720900 ± 20000 J/K/m3
328.3 K	1720700 ± 20000 J/K/m3
328.4 K	1720800 ± 20000 J/K/m3
328.5 K	1721000 ± 20000 J/K/m3
328.6 K	1721500 ± 20000 J/K/m3
328.7 K	1721400 ± 20000 J/K/m3
328.8 K	1721200 ± 20000 J/K/m3
328.9 K	1721300 ± 20000 J/K/m3
329 K	1720900 ± 20000 J/K/m3
329.1 K	1720900 ± 20000 J/K/m3
329.2 K	1720800 ± 20000 J/K/m3
329.3 K	1720700 ± 20000 J/K/m3
329.4 K	1721000 ± 20000 J/K/m3
329.5 K	1721100 ± 20000 J/K/m3
329.61 K	1721300 ± 20000 J/K/m3
329.7 K	1721300 ± 20000 J/K/m3
329.8 K	1721400 ± 20000 J/K/m3
329.9 K	1721400 ± 20000 J/K/m3
330 K	1721300 ± 20000 J/K/m3
330.1 K	1722000 ± 20000 J/K/m3
330.2 K	1722500 ± 20000 J/K/m3
330.3 K	1722400 ± 20000 J/K/m3
330.4 K	1722100 ± 20000 J/K/m3
330.5 K	1721600 ± 20000 J/K/m3
330.61 K	1721600 ± 20000 J/K/m3
330.7 K	1721300 ± 20000 J/K/m3
330.8 K	1721300 ± 20000 J/K/m3
330.9 K	1721300 ± 20000 J/K/m3
331 K	1721500 ± 20000 J/K/m3
331.1 K	1721700 ± 20000 J/K/m3
331.2 K	1721500 ± 20000 J/K/m3
331.3 K	1721200 ± 20000 J/K/m3
331.4 K	1721400 ± 20000 J/K/m3
331.5 K	1721300 ± 20000 J/K/m3
331.6 K	1721300 ± 20000 J/K/m3
331.7 K	1721500 ± 20000 J/K/m3
331.81 K	1721700 ± 20000 J/K/m3
331.9 K	1722000 ± 20000 J/K/m3
332 K	1722000 ± 20000 J/K/m3
332.1 K	1721900 ± 20000 J/K/m3
332.2 K	1722100 ± 20000 J/K/m3
332.3 K	1722100 ± 20000 J/K/m3
332.4 K	1722000 ± 20000 J/K/m3
332.5 K	1722000 ± 20000 J/K/m3
332.6 K	1722200 ± 20000 J/K/m3
332.7 K	1722600 ± 20000 J/K/m3
332.8 K	1722700 ± 20000 J/K/m3
332.9 K	1722700 ± 20000 J/K/m3
333 K	1722600 ± 20000 J/K/m3
333.1 K	1722200 ± 20000 J/K/m3
333.2 K	1721900 ± 20000 J/K/m3
333.31 K	1721900 ± 20000 J/K/m3
333.4 K	1722000 ± 20000 J/K/m3
333.5 K	1722000 ± 20000 J/K/m3
333.6 K	1722200 ± 20000 J/K/m3
333.7 K	1722700 ± 20000 J/K/m3
333.8 K	1722800 ± 20000 J/K/m3
333.9 K	1722600 ± 20000 J/K/m3
334 K	1722600 ± 20000 J/K/m3
334.1 K	1722700 ± 20000 J/K/m3
334.2 K	1722600 ± 20000 J/K/m3
334.3 K	1722900 ± 20000 J/K/m3
334.4 K	1723400 ± 20000 J/K/m3
334.5 K	1723900 ± 20000 J/K/m3
334.6 K	1723800 ± 20000 J/K/m3
334.7 K	1723400 ± 20000 J/K/m3
334.8 K	1723000 ± 20000 J/K/m3
334.9 K	1722900 ± 20000 J/K/m3
335 K	1723100 ± 20000 J/K/m3
335.1 K	1723300 ± 20000 J/K/m3
335.2 K	1723600 ± 20000 J/K/m3
335.3 K	1723700 ± 20000 J/K/m3
335.4 K	1723700 ± 20000 J/K/m3
335.5 K	1723700 ± 20000 J/K/m3
335.6 K	1723600 ± 20000 J/K/m3
335.7 K	1723500 ± 20000 J/K/m3
335.8 K	1723300 ± 20000 J/K/m3
335.9 K	1723400 ± 20000 J/K/m3
336 K	1723600 ± 20000 J/K/m3
336.1 K	1723400 ± 20000 J/K/m3
336.2 K	1723600 ± 20000 J/K/m3
336.3 K	1723200 ± 20000 J/K/m3
336.4 K	1723100 ± 20000 J/K/m3
336.5 K	1723300 ± 20000 J/K/m3
336.6 K	1723400 ± 20000 J/K/m3
336.7 K	1723700 ± 20000 J/K/m3
336.8 K	1724100 ± 20000 J/K/m3
336.9 K	1724400 ± 20000 J/K/m3
337 K	1724100 ± 20000 J/K/m3
337.1 K	1724200 ± 20000 J/K/m3
337.18 K	1724100 ± 20000 J/K/m3
337.32 K	1723700 ± 20000 J/K/m3
337.43 K	1723700 ± 20000 J/K/m3
337.52 K	1724100 ± 20000 J/K/m3
337.6 K	1724300 ± 20000 J/K/m3
337.73 K	1724500 ± 20000 J/K/m3
337.8 K	1724400 ± 20000 J/K/m3
337.9 K	1724900 ± 20000 J/K/m3
338 K	1724800 ± 20000 J/K/m3
338.01 K	1724800 ± 20000 J/K/m3
338.02 K	1724900 ± 20000 J/K/m3
338.03 K	1724900 ± 20000 J/K/m3
338.45 K	1724800 ± 20000 J/K/m3 and 1724900 ± 20000 J/K/m3
338.53 K	1725300 ± 20000 J/K/m3
338.58 K	1725400 ± 20000 J/K/m3
338.59 K	1725200 ± 20000 J/K/m3
338.6 K	1725300 ± 20000 J/K/m3
338.62 K	1725200 ± 20000 J/K/m3
339 K	1724600 ± 20000 J/K/m3 and 1724700 ± 20000 J/K/m3
339.01 K	1724600 ± 20000 J/K/m3 and 1724500 ± 20000 J/K/m3
339.1 K	1724700 ± 20000 J/K/m3 and 1724600 ± 20000 J/K/m3
339.11 K	1724700 ± 20000 J/K/m3 and 1724800 ± 20000 J/K/m3
339.13 K	1724700 ± 20000 J/K/m3
339.2 K	1725100 ± 20000 J/K/m3
